The values that follow are results of earlier work, collected in US20240307364A1, “GAS TRANSMISSION EMULSION FOR INTRAVENOUS ADMINISTRATION” (priority 2021, published 2024).

Like-named read-outs stand apart in the source and are kept apart here.

The conditions of series [1]: measure of relative solubility of PFOC in lipids.
The conditions of series [2]: toxic or locally irritating properties of the detected impurity.
For series [3] the following is noted: 37° C.

In the case of “Perfluorodimethyladamantane [Perfluorodimethyladamantane (PFDMA)]”, the “TcrH (temperature at which equal volumes of PFOC and hexane are mixed together)” value (from here on “TcrH”) in series [1] was 32 °C. Further, where the note is “in vivo”, the “Grade of clearance rate” value was “Fast” and the “t1/2, elimination half-life” value is 10 to 20 days.
Regarding `CC(C)COC(=O)c1ccccc1C(=O)OCC(C)C` [diisobutyl phthalate], the “Toxicity, yes/no” value in series [2] is on record as “yes”.
As for `FC(F)(F)C(F)(F)C(F)(F)N(C(F)(F)C(F)(F)C(F)(F)F)C(F)(F)C(F)(F)C(F)(F)F` [Perfluorotripropylamine (PFTPA), Perfluorotripropylamine], the “TcrH” value in series [1] was 43 °C. The “P, vapor tension” value in series [3] is on record as 17 mm Hg. Further, under “elimination from an organism”, the “t1/2, elimination half-life” value is 65 days. In addition, the “Grade of clearance rate” value (in vivo) was “Slow”.
`FC1(F)C(F)(F)C(F)(F)C(F)(F)C(F)(F)C1(F)F` (single isomer, unassigned) [cyclohexane, dodecafluoro-]: the “Toxicity, yes/no” value in series [2] is “yes”.
`FC(F)(F)C(F)(F)C(F)(F)C(F)(F)C(F)(F)C(F)(F)C(F)(F)C(F)(F)Br` [Perfluorooctyl bromide (PFOB), Perfluorooctyl bromide]: the “TcrH” value in series [1] is −20 °C. For the same molecule, the “P, vapor tension” value in series [3] is reported as 10.5 mm Hg. Further, the “Grade of clearance rate” value (in vivo) is “Fast”.
On to `OCC(O)CO` [glycerol], for which, in series [2], the “Toxicity, yes/no” value was “no”.
Turning to O-ethyl-methoxy-phenyl-oxime, in series [2], the “Toxicity, yes/no” value is given as “yes”.
Consider `FC1(F)C(F)(F)C(F)(F)C2(F)C(F)(F)C(F)(F)C(F)(F)C(F)(F)C2(F)C1(F)F` (stereo not drawn) [Perfluorodecalin (PFD), Perfluorodecalin], for which the “TcrH” value in series [1] is 22 °C. Moreover, the “P, vapor tension” value in series [3] is given as 12 mm Hg. In addition, the “Grade of clearance rate” value (in vivo) was “Fast”.
On to `FC(F)(F)C1(F)C(F)(F)C(F)(F)C(F)(F)C(F)(F)C1(F)F` (single isomer, unassigned) [perfluoro(methylcyclohexane)], for which, in series [2], the “Toxicity, yes/no” value is “no”.
For `FC1(F)C(F)(F)C(F)(F)C2(F)C(F)(F)C(F)(F)C(F)(F)C2(F)C1(F)F` (stereo not drawn) [Perfluorobicyclo[4.3.0]nonane], in series [1], the “TcrH” value was 13 °C. The “P, vapor tension” value in series [3] is 33 mm Hg. The “t1/2, elimination half-life” value (elimination from an organism) was 4 days. For the same molecule, the “Grade of clearance rate” value (in vivo) is recorded as “Fast”.
On to `CO/C(=N\O)c1ccccc1` [oxime-, methoxy-phenyl-], for which, in series [2], the “Toxicity, yes/no” value is “yes”.
`CCOC(=O)c1ccccc1` [benzoic acid ethyl ester]: the “Toxicity, yes/no” value in series [2] is listed as “yes”.
In the case of `CCOC(C)c1ccccc1` (single isomer, unassigned) [benzene, (1-ethoxyethyl)-], the “Toxicity, yes/no” value in series [2] is “yes”.
`FC(F)(F)N(C(F)(F)C(F)(F)C(F)(F)C(F)(F)F)C1(F)C(F)(F)C(F)(F)C(F)(C(F)(F)F)C(F)(F)C1(F)F` (stereo not drawn) [perfluoromethylbutyl(4-methylcyclohexyl)amine]: the “Toxicity, yes/no” value in series [2] was “no”.
Regarding `COC(=O)c1ccccc1C(=O)OC` [dimethyl phthalate], the “Toxicity, yes/no” value in series [2] is “no”.
As for `Fc1ccc2ccccc2c1` [naphthalene, 2-fluoro-], the “Toxicity, yes/no” value in series [2] is “yes”.
As to `OCc1ccco1` (single isomer, unassigned) [furfurol], the “Toxicity, yes/no” value in series [2] is reported as “yes”.
As for `c1ccc2ccccc2c1` [naphthalene], the “Toxicity, yes/no” value in series [2] is “yes”.
For the molecule `FC(F)(F)N1C(F)(F)C(F)(F)C(F)(C2(F)C(F)(F)C(F)(F)C(F)(F)C(F)(F)C2(F)F)C(F)(F)C1(F)F` [Perfluoromethylcyclohexylpiperidine], the “t1/2, elimination half-life” value (elimination from an organism) was 90 days. For the setting “in vivo”, the “Grade of clearance rate” value is reported as “Slow”.
Regarding `FC(F)(F)C(F)(F)C(F)(F)C(F)(F)N(C(F)(F)C(F)(F)C(F)(F)C(F)(F)F)C(F)(F)C(F)(F)C(F)(F)C(F)(F)F` [Perfluorotributylamine (PFTBA), Perfluorotributylamine], the “TcrH” value in series [1] was 61 °C. Besides, the “P, vapor tension” value in series [3] is recorded as 1 mm Hg. The “t1/2, elimination half-life” value (elimination from an organism) was 400 to 900 days. The “Grade of clearance rate” value (in vivo) was “Slow”.
With `CN(C)C(=S)N(C)C` [thiourea, tetramethyl-], the “Toxicity, yes/no” value in series [2] is recorded as “yes”.
For the molecule `CC1=NN(c2ccccc2)C(=O)C1` [3H-pyrazol-3-one, 2,4-dihydro-5-methyl-2-phenyl-], in series [2], the “Toxicity, yes/no” value was “yes”.
As for Perfluorodihexyl ether, in series [1], the “TcrH” value is 59 °C. Also, the “P, vapor tension” value in series [3] is on record as 2 mm Hg. The “t1/2, elimination half-life” value (elimination from an organism) is reported as 500 days. Besides, the “Grade of clearance rate” value (in vivo) was “Slow”.
For `Cc1cc(Cc2cc(C)cc(C(C)(C)C)c2O)c(O)c(C(C)(C)C)c1` [phenol, 2,2′-methylenebis[6-(1,1-dimethylethyl)-4-methyl-], the “Toxicity, yes/no” value in series [2] is on record as “yes”.
As to `CCCCCO` (single isomer, unassigned) [pentanol], the “Toxicity, yes/no” value in series [2] is recorded as “yes”.
`CC1C=CCC(C)(C)C1` (stereo not drawn) [cyclohexene, 3,5,5-trimethyl-]: the “Toxicity, yes/no” value in series [2] is “yes”.
In the case of `Cc1cc(O)n(Cc2ccccc2)c(=O)c1C#N` [1-benzyl-6-hydroxy-4-methyl-2(1H)-oxo-3-pyridinecarbonitrile], in series [2], the “Toxicity, yes/no” value was “yes”.
`FC(F)(F)C(F)(F)C(F)(F)N1C(F)(F)C(F)(F)C(F)(F)C(F)(F)C1(F)C(F)(F)F` (stereo not drawn) [Perfluoro-1-propyl-2 methylpiperidine]: the “TcrH” value in series [1] was 35 °C. Also, the “P, vapor tension” value in series [3] was 19 mm Hg. Besides, the “t1/2, elimination half-life” value (elimination from an organism) was 24 days. The “Grade of clearance rate” value (in vivo) is “Fast”.
With `FC1(F)C(F)(F)C2(F)C(F)(F)C(F)(F)C(F)(F)C3(F)C(F)(F)C(F)(F)C(F)(C1(F)F)C23F` (stereo not drawn) [Perfluorodecahydroacenaphthene], the “TcrH” value in series [1] was 24 °C. In series [3], the “P, vapor tension” value is given as 2 mm Hg. For the same molecule, the “t1/2, elimination half-life” value (elimination from an organism) was 7 days. Besides, for the setting “in vivo”, the “Grade of clearance rate” value is “Fast”.
